Target: human NAMPT (Homo sapiens (Human), UniProt P43490)
Assay: NMN fluorescence biochemical assay (human recombinant NAMPT enzyme assay)
Outline: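 NMN formed was detected by fluorescence (Ex/Em 355/460 nm) after acetophenone, KOH and formic acid derivatization. The cell-free reaction ran 60 min at ambient temperature with 6 nM human NAMPT, 150 μM nicotinamide, 20 μM PRPP, 2.5 mM ATP, pH 7.2 HEPES, and compound dose responses.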

Chain of human NAMPT (P43490 whole entry): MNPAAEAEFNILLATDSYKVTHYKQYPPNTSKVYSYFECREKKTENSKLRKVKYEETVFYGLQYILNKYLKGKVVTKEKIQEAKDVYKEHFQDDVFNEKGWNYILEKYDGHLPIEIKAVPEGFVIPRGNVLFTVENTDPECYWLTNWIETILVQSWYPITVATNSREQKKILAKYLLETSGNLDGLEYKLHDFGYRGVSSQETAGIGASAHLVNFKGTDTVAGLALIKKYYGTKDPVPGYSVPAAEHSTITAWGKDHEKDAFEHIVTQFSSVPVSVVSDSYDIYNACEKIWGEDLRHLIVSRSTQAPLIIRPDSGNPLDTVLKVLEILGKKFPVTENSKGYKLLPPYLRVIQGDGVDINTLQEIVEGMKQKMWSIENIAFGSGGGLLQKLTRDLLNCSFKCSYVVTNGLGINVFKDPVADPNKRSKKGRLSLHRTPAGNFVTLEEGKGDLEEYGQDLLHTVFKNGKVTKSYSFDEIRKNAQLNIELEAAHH

Compound | AC1.4 Human | EC50
Cc1noc(C(=O)N(C)Cc2ccc(NC(=O)OCc3ccc(Cl)cc3)cc2)c1C [Compound 190, (4-chlorophenyl)methyl N-(4-{[1-(3,4-dimethyl-1,2-oxazol-5-yl)-N-methylformamido]methyl}phenyl)carbamate] | 1.64 µM | 9 µM
CN(C)C(=O)N1CCC2(CC(c3ccc(NC(=O)OCc4cnco4)cc3F)C2)C1 (single isomer, unassigned) [Compound 363] | 0.03 µM | 4.49 µM
CC1CCCN1C(=O)Cc1ccc(NC(=O)OCc2ccc(Cl)cc2)cc1 (stereo not shown) [Compound 215, (4-chlorophenyl)methyl N-{4-[2-(2-methylpyrrolidin-1-yl)-2-oxoethyl]phenyl}carbamate] | 1.96 µM | 8.35 µM
CS(=O)(=O)C1CN(Cc2ccc(NC(=O)OCc3ccc(Cl)cc3)cc2)C1 [Compound 222, (4-chlorophenyl)methyl N-{4-[(3-methanesulfonylazetidin-1-yl)methyl]phenyl}carbamate] | 2.05 µM | 27.6 µM
CN(C)S(=O)(=O)N1CCC[C@H](c2ccc(NC(=O)OCc3cnco3)cc2)C1 [Compound 366, oxazol-5-ylmethyl (R)-(4-(1-(N,N-dimethylsulfamoyl)piperidin-3-yl)phenyl)carbamate] | 0.15 µM | 10.2 µM
O=C(Nc1ccc(Cc2ccncc2)cc1)OCc1ccns1 [Compound 219, isothiazol-5-ylmethyl (4-(pyridin-4-ylmethyl)phenyl)carbamate] | 2.03 µM | 20.6 µM
Cc1ncc(C(=O)NCc2ccc(NC(=O)OCc3ccc(Cl)cc3)cc2)cn1 [Compound 109, (4-chlorophenyl)methyl N-(4-{[(2-methylpyrimidin-5-yl)formamido]methyl}phenyl)carbamate] | 0.90 µM | 4.71 µM
O=C(Nc1ccc(CC(=O)N2CCN(C3COC3)CC2)cc1)OCc1ccc(Cl)cc1 [Compound 194, (4-chlorophenyl)methyl N-(4-{2-[4-(oxetan-3-yl)piperazin-1-yl]-2-oxoethyl}phenyl)carbamate] | 1.73 µM | 26.7 µM
COc1ccc(COC(=O)Nc2ccc([C@H]3CNC(=O)CN3C)cc2)cc1 [Compound 263, 4-methoxybenzyl (S)-(4-(1-methyl-5-oxopiperazin-2-yl)phenyl)carbamate] | 2.92 µM | 39.1 µM
CC(C)Cn1nccc1C(=O)N(C)Cc1ccc(NC(=O)OCc2ccc(Cl)cc2)cc1 [Compound 94, (4-chlorophenyl)methyl N-[4-({N-methyl-1-[2-(2-methylpropyl)pyrazol-3-yl]formamido}methyl)phenyl]carbamate] | 0.75 µM | 2.36 µM
CCc1cc(C(=O)N(C)Cc2ccc(NC(=O)OCc3ccc(Cl)cc3)cc2)n(C)n1 [Compound 289, (4-chlorophenyl)methyl N-(4-{[1-(5-ethyl-2-methylpyrazol-3-yl)-N-methylformamido]methyl}phenyl)carbamate] | 3.95 µM | 50.3 µM
COC(=O)N1CCC(c2ccc(NC(=O)OCc3cnco3)cc2F)CC1 [Compound 417, methyl 4-(2-fluoro-4-(((oxazol-5-ylmethoxy)carbonyl)amino)phenyl)piperidine-1-carboxylate] | 0.18 µM | 27 µM
Cc1ocnc1C(=O)NCc1ccc(NC(=O)OCc2ccc(Cl)cc2)cc1 [Compound 321, (4-chlorophenyl)methyl N-(4-{[(5-methyl-1,3-oxazol-4-yl)formamido]methyl}phenyl)carbamate] | 6.86 µM | 55.7 µM
Cc1cc(C(=O)N(C)Cc2ccc(NC(=O)OCc3ccc(Cl)cc3)cc2)on1 [Compound 160, (4-chlorophenyl)methyl N-(4-{[N-methyl-1-(3-methyl-1,2-oxazol-5-yl)formamido]methyl}phenyl)carbamate] | 1.33 µM | 5.32 µM
tert-butyl 4-(4-(((oxazol-5-ylmethoxy)carbonyl)amino)phenethyl)piperidine-1-carboxylate [Compound 121] | 0.97 µM | 14.5 µM
Cc1ccc(S(=O)(=O)NCc2ccc(NC(=O)OCc3ccc(Cl)cc3)cc2)cn1 [Compound 356, (4-chlorophenyl)methyl N-{4-[(6-methylpyridine-3-sulfonamido)methyl]phenyl}carbamate] | 29.04 µM | 18.2 µM
O=C(Nc1ccc(Cc2ccncc2)cc1)OCc1ccc(C(F)F)cc1 [Compound 196, 4-(difluoromethyl)benzyl (4-(pyridin-4-ylmethyl)phenyl)carbamate] | 1.75 µM | 7.22 µM
O=C(Nc1ccc(C2CCN(CC(F)F)CC2)cc1)OCc1cnco1 [Compound 113, 1,3-oxazol-5-ylmethyl N-{4-[1-(2,2-difluoroethyl)piperidin-4-yl]phenyl}carbamate] | 0.94 µM | 51 µM
O=C(Nc1ccc(CN2CCC[C@@H]2c2cccnc2)cc1)OCc1ccncc1 [Compound 3, pyridin-4-ylmethylN-(4-{[(2R)-2-(pyridin-3-yl)pyrrolidin-1-yl]methyl}phenyl)carbamate] | 0.05 µM | 0.31 µM
O=C(Nc1ccc(CN2C(=O)CC3CC32)cc1)OCc1ccc(Cl)cc1 (stereo not shown) [Compound 63, (4-chlorophenyl)methyl N-[4-({3-oxo-2-azabicyclo[3.1.0]hexan-2-yl}methyl)phenyl]carbamate] | 0.57 µM | 4.93 µM
CN(C)S(=O)(=O)N1CCC(Cc2ccc(NC(=O)OCc3cnco3)cc2F)CC1 [Compound 447, oxazol-5-ylmethyl (4-((1-(N,N-dimethylsulfamoyl)piperidin-4-yl)methyl)-3-fluorophenyl)carbamate] | 0.08 µM | 2.31 µM
CC(C)C(=O)N1CCC2(CC(Cc3ccc(NC(=O)OCc4cnco4)cc3F)C2)C1 (stereo not shown) [Compound 368, oxazol-5-ylmethyl (3-fluoro-4-((6-isobutyryl-6-azaspiro[3.4]octan-2-yl)methyl)phenyl)carbamate] | 0.09 µM | 2.93 µM
COC1CCN(C(=O)N(C)[C@@H](C)c2ccc(NC(=O)OCc3ccc(Cl)cc3)cc2)CC1 [Compound 134, 4-chlorobenzyl (S)-(4-(1-(4-methoxy-N-methylpiperidine-1-carboxamido)ethyl)phenyl)carbamate] | 1.07 µM | 13.7 µM
CN(C)C(=O)N1CC2CC(C1)C2Cc1ccc(NC(=O)OCc2cnco2)cc1 (stereo not shown) [Compound 436, oxazol-5-ylmethyl (4-((3-(dimethylcarbamoyl)-3-azabicyclo[3.1.1]heptan-6-yl)methyl)phenyl)carbamate] | 0.08 µM | 6.04 µM
CC1CCN(C(=O)Cc2ccc(NC(=O)OCc3ccc(Cl)cc3)cc2)CC1 [Compound 240, (4-chlorophenyl)methyl N-{4-[2-(4-methylpiperidin-1-yl)-2-oxoethyl]phenyl}carbamate] | 2.33 µM | 2.73 µM
O=C(Nc1ccc(CC(=O)N2CCC(F)CC2)cc1)OCc1ccc(Cl)cc1 [Compound 212, (4-chlorophenyl)methyl N-{4-[2-(4-fluoropiperidin-1-yl)-2-oxoethyl]phenyl}carbamate] | 1.93 µM | 10.2 µM
